Measured values: US6849658B2, “Biaromatic compounds and pharmaceutical and cosmetic compositions comprising them” (Galderma Research & Development, priority 1997, dated 2005)

SMILES | melting point [°C]
CC1(C)CCC(C)(C)c2c(C(O)C#Cc3ccc(C(=O)O)cc3)cc(-c3ccccc3)cc21 (stereo not shown) | 250
CC1(C)CCSc2c(CC#Cc3ccc(C(=O)O)c(O)c3)cccc21 [Example 6, 2-Hydroxy-4-[3-(4,4-dimethylthiochroman-8-yl)prop-1-ynyl]benzoic Acid] | 190 to 191
CC1(C)CCSc2cccc(C(O)C#Cc3ccc(C(=O)O)cc3)c21 (stereo not shown) [Example 11, 4-[3-(4,4-Dimethylthiochroman-5-yl)-3-hydroxyprop-1-ynyl]benzoic Acid] | 198
CCOC(=O)c1ccc(C#CCc2cc(C(C)(C)C)cc(C(C)(C)C)c2O)cc1 [Example 16, Ethyl 4-[3-(3,5-di-tert-butyl-2-hydroxyphenyl)prop-1-ynyl]benzoate] | 113 to 115
COc1c(C(O)C#Cc2ccc(C(=O)O)cc2)cc(-c2ccccc2)cc1C(C)(C)C (stereo not shown) [Example 23, 4-[3-(5-tert-Butyl-4-methoxybiphenyl-3-yl)-3-hydroxyprop-1-ynyl]benzoic Acid] | 165 to 167
COc1c(CC#Cc2ccc(C(=O)O)cc2)cc(-c2ccccc2)cc1C(C)(C)C [Example 31, 4-[3-(5-tert-Butyl-4-methoxybiphenyl-3-yl)prop-1-ynyl]benzoic Acid] | 229 to 231

More lines, now with the values ahead:

melting point [°C] | SMILES
197 | COCOc1c(C(O)C#Cc2ccc(C(=O)O)cc2)cc(C(C)(C)C)cc1C(C)(C)C (stereo not shown) [Example 14, 4-[3-(3,5-Di-tert-butyl-2-(methoxymethoxy)phenyl)-3-hydroxyprop-1-ynyl]benzoic Acid]
208 to 209 | COc1c(C(O)C#Cc2ccc(C(=O)O)cc2)cc(C(C)(C)C)cc1C(C)(C)C (stereo not shown) [Example 18, 4-[3-(3,5-Di-tert-butyl-2-methoxyphenyl)-3-hydroxyprop-1-ynyl]benzoic Acid]
237 to 239 | COc1c(CC#Cc2ccc(C(=O)O)cc2)cc(C(C)(C)C)cc1C(C)(C)C [Example 19, 4-[3-(3,5-Di-tert-butyl-2-methoxyphenyl)prop-1-ynyl]benzoic Acid]
162 to 164 | COc1c(C(C#Cc2ccc(C(=O)O)cc2)OC)cc(C(C)(C)C)cc1C(C)(C)C (stereo not shown) [Example 25, 4-[3-(3,5-Di-tert-butyl-2-methoxyphenyl)-3-methoxyprop-1-ynyl]benzoic Acid]
